In assay [1] the test system is castrated immature young rats. Kind of assay: Adapted model of Hershberger's test. Format: in vivo, Sprague Dawley rats. To be noted: Rattus norvegicus, po, 96 h, ORX control = 0%, SHAM control = 100%, per os daily for 4 days, dose tested 10 mg/kg. As to the method:
The selective modulating activity of the androgen receptor is tested in a model of castrated immature young rats. This model, which is widely recognised for evaluating the anabolic effects of androgen compounds on the muscles and on the prostate, has been described by Hershberger et al. 1953 Proc. Soc. Expt. Biol. Med. 83:175.
The method is based on the measurement of the well-known effects of androgens on the growth of the muscles and the accessory male sex organs in animals, and also in men. The consequences of castration appear in the form of a rapid involution and atrophy of the prostate and the seminal vesicles and of the anus-lifting muscle (levator ani). This effect may be completely compensated by an exogeneous administration of androgen, in particular of testosterone. The model is thus used to determine the capacity of the tested molecules to maintain the weight of the accessory sex and muscle organs in immature castrated rats, and therefore their androgenic efficacy.
Immature young Sprague Dawley rats (4 to 5 weeks old) weighing approximately 140-160 g (Charles River, Les Oncins, FRANCE) are distributed randomly in various groups and are kept in an environment at 22±2° C. with an alternating day/night cycle of 12 hours and ad libitum access to food and drink.
On day 0 (seven days before commencement of the first treatment) the rats are weighed individually then anaesthetised with an intraperitoneal dose of Ketamine/xylazine (85/15 mg/kg, approximately 2 ml/kg). Each animal is then placed on a sterile field and the abdomen and the scrotum are disinfected with Betadine and 70% alcohol. In the case of the orchidectomised control animals (ORX), the testicles are removed via an incision in the middle of the scrotum. A sterile suture is then made to ligature the supra-testicular portion of the tissue prior to surgical section of each testicle. The groups of animals to be treated by the tested compounds are operated on in an identical manner. In the case of the intact control animals (SHAM), the testicles are similarly extracted and reintroduced delicately to their original location. The site of surgical intervention is then sutured using sterile suture thread, and the site is disinfected again by application of Betadine. Each animal is then kept under a sterile pad until it awoke, before being returned to its cage. The animals are kept in an environment at 22±2° C. with an alternating day/night cycle of 12 hours and ad libitum access to food and drink. The animals are treated with the molecules to be tested from post-surgery day 7 and until day 10 preceding sacrifice (day 11).
The rats are split into groups and treated daily from day 7 to day 10 under the conditions defined below: • 1. SHAM control group: Vehicle (PEG400/DMSO/water; 79/1/20) administered per os. • 2. ORX control group: Vehicle (PEG400/DMSO/water; 79/1/20) administered per os. • 3. Treated ORX group: The tested compounds are administered individually per os in suspension in the vehicle described above, in a dose of 10 mg/kg.
After treatment for 4 successive days, the animals are decapitated using a guillotine. The levator ani and the ventral prostate are removed and weighed individually. For comparing inter-experimental data, the weight of each organ is standardised and expressed in milligrammes per 100 g of the weight of the animal (W). For each organ, the average of the standardised weights of the ORX control group is fixed by definition at 0% and the average of the standardised weights of the SHAM control group is fixed by definition at 100%. The efficacy of each product is expressed as a percentage and calculated using the following formula: (Wtreated−WORX)/(WSHAM−WORX)×100
A subsequent ANOVA test is used for statistical analysis to identify the differences between groups.

The target of assay [2] is T1, human androgen receptor (hAR) (Homo sapiens, UniProt P10275).
T1 construct: expressed in transfected cells
T1 sequence (P10275 1-920): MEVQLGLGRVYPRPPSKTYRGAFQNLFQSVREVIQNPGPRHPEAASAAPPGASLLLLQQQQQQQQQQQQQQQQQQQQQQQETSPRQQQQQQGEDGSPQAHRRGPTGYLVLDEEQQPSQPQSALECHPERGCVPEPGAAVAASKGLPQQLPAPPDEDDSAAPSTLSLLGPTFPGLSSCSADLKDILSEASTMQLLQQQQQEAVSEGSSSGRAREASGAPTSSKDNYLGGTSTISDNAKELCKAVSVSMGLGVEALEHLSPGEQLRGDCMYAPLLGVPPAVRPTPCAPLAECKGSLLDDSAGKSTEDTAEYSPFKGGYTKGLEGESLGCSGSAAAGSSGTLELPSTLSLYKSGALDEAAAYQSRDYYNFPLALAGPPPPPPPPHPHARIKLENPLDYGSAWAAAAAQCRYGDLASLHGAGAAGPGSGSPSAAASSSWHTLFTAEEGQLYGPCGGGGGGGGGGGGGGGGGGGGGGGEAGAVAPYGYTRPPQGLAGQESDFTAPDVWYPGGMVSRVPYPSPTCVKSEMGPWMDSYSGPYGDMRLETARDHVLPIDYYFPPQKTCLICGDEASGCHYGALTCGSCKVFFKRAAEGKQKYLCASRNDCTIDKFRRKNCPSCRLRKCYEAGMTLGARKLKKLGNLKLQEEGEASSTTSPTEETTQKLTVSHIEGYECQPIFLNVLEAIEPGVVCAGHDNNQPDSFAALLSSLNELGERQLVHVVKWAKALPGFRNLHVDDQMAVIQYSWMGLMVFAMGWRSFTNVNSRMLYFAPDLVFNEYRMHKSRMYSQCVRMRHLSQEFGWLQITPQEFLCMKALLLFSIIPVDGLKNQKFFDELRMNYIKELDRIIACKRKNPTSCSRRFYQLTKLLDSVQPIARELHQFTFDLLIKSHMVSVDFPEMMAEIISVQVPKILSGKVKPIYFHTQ
Kind of assay: Functional response (transactivation) test in HALP2 cells (HeLa stably expressing hAR and ARE-luciferase reporter). Format: cell-based. To be noted: for Emax: HeLa, read-out: % effect relative to DHT (100%). The source says: This test constitutes a method of identifying pure or partial agonists which mimic the effects of natural hormones, such as DHT (dihydrotestosterone) in the present case or, on the other hand, antagonists which inhibit them.
For this transactivation test, plasmids encoding a reporter gene and the human androgen receptor (hAR) are introduced together by transfection into the HeLa cell line. The reporter plasmid contains luciferase cDNA under the control of the AREs contained in the promoter sequences of the probasin gene (3xpbAREminicoll-luciferase/pGL3-puro). The expression of the reporter gene constitutes an indication of the transcriptional activity of hAR. It also encodes a protein allowing the cells expressing it to resist a treatment with puromycin. The plasmid encoding hAR contains the cDNA of hAR under the control of the Cytomegalovirus (CMV) promoter. It also encodes a protein allowing the cells expressing it to resist a treatment with neomycin. The treatment of cells with increasing amounts of potentially agonistic compounds will increase the expression of the reporter gene. To detect antagonists, on the other hand, increasing doses of test compounds are tested in the presence of […] of DHT. The expression of the reporter gene, which is constant for each dose of DHT, decreases when the concentration of the test compounds increases.
The functional response test is conducted on 96-well plates. The HALP2 cells are seeded (20,000 cells per well) in culture medium (DMEM with phenol red, 1% de Pen-Strep, 1% of non-essential amino acids, 10% of fetal bovine serum, 400 μg/mL Geneticin and 0.150 puromycin) on day 1. After 24 hours incubating at 37° C., 5% CO2, high humidity (day 2) the medium is removed and refreshed with test medium (DMEM without phenol red supplemented, 1% de Pen-Strep, 1% of non-essential amino acids and 5% of desteroidised foetal bovine serum). After another 24 hours incubating at 37° C., 5% CO2, high humidity (day 3), the medium is renewed once more before the phase of stimulation.
The cells are placed in contact with the compounds for 24 hours at 37° C., 5% CO2, high humidity. On day 4 the medium is then removed and the luciferase activity reading reagent is placed in contact with the cells in accordance with the manufacturer's instructions (SteadyLite, Perkin-Elmer). The luminescence produced is detected on an Envision reader (Perkin-Elmer). […]
The determination of the relative agonism/antagonism of a compound is obtained by comparing the maximal activation obtained with said compound and the activation obtained with DHT alone (100%).

[3] abbreviates: levator ani weight, read-out: Anabolic activity %.
[4] abbreviates: ventral prostate weight, read-out: Androgenic activity % (Prostate).
The mark [5] stands for this setting: maximal activation by the compound compared with DHT alone (100%), HALP2 cells.
The mark [6] stands for this setting: agonism: concentration inducing 50% of the maximum agonistic effect of the tested compound, HALP2 cells, 24 hours, read-out: EC50.

Where two headings read alike, the source gives them in different places.

The term EC50 denotes the concentration at which the effect is half-maximal.

On to `CN1C(=O)N(c2ccc(C#N)c(C(F)(F)F)c2)C(=O)C1(CO)c1ccc(C#N)cc1` (stereo not shown) [Example 13, 4-[4-(4-Cyanophenyl)-2,5-dioxo-4-hydroxymethyl-3-methylimidazolidin-1-yl)-2-trifluoromethylbenzonitrile], for which the response vs control in vivo at 10 mg/kg in assay [1] (setting [3]) and in assay [1] (setting [4]) was 0.5 to 25% each time. Also, in assay [2] (setting [5]), the Emax is 0 to 5%.
As to `CN1C(=O)N(c2ccc(C#N)c(C(F)(F)F)c2)C(=O)C1(CO)c1cccc(C#N)c1` (stereo not shown) [Example 14, 4-[4-(3-Cyanophenyl)-2,5-dioxo-4-hydroxymethyl-3-methylimidazolidin-1-yl)-2-trifluoromethylbenzonitrile], the values for the response vs control in vivo at 10 mg/kg in assay [1] (setting [3]) and in assay [1] (setting [4]) were 75 to 100% and 25 to 50%, respectively. Moreover, in assay [2] (setting [5]), the Emax fell in the range of 21 to 40%. For the same molecule, in assay [2] (setting [6]), the EC50 is 101 to 500 nM.
The like results for `CN1C(=O)N(c2ccc(Cl)c(Cl)c2)C(=O)C1(CO)c1ccccc1` (stereo not shown) [Example 16, 1-(3,4-Dichlorophenyl)-4-hydroxymethyl-3-methyl-4-phenylimidazolidine-2,5-dione] were, in that order, 75 to 100%, 0.5 to 25%, 6 to 20% and 101 to 500 nM.
For `C#CCN1C(=O)N(c2ccc(C#N)c(C(F)(F)F)c2)C(=O)C1(CO)c1ccccc1` (stereo not shown) [Example 19] the same measures were 75 to 100%, 25 to 50%, 6 to 20% and 101 to 500 nM.
As to `CC(C)[C@H](N)C(=O)OCC1(c2ccccc2)C(=O)N(c2ccc(C#N)c(C(F)(F)F)c2)C(=O)N1C` (stereo partly drawn) [Example 25, (2S)-1-[1-(4-Cyano-3-trifluoromethylphenyl)-2,5-dioxo-3-methyl-4-phenylimidazolidin-4-yl]methoxy-3-methyl-1-oxobutan-2-aminium chloride], in assay [2], the EC50 was in the range of 11 to 100 nM and the Emax was 21 to 40%.
For `CC(C)N1C(=O)N(c2ccc(C#N)c(C(F)(F)F)c2)C(=O)C1(CO)c1ccccc1` (stereo not shown) [Example 17, 4-[2,5-Dioxo-4-(hydroxymethyl)-3-(1-methylethyl)-4-phenylimidazolidin-1-yl]-2-trifluoromethylbenzonitrile], the response vs control in vivo at 10 mg/kg was 75 to 100% in assay [1] (setting [3]) and 50 to 75% in assay [1] (setting [4]). The Emax in assay [2] (setting [5]) was 41 to 50%. In addition, the EC50 in assay [2] (setting [6]) lay within 101 to 500 nM.
For `N#CCN1C(=O)N(c2ccc(C#N)c(C(F)(F)F)c2)C(=O)C1(CO)c1ccccc1` (stereo not shown) [Example 18, 4-[3-Cyanomethyl-2,5-dioxo-4-(hydroxymethyl)-4-phenylimidazolidin-1-yl]-2-trifluoromethylbenzonitrile] the same measures were 75 to 100%, 0.5 to 25%, 6 to 20% and 501 to 1000 nM.
Turning to `CN1C(=O)N(c2ccc(C#N)c(C(F)(F)F)c2)C(=O)C1(COC(=O)CCC(=O)O)c1ccccc1` (stereo not shown) [Example 26, 4-[1-(4-Cyano-3-trifluoromethylphenyl)-2,5-dioxo-3-methyl-4-phenylimidazolidin-4-yl]methoxy-4-oxobutanoic acid], in assay [2], the EC50 lay within 11 to 100 nM and the Emax was in the range of 21 to 40%.
For `N#Cc1ccc(N2C(=O)NC(CO)(c3ccccc3)C2=O)cc1C(F)(F)F` (stereo not shown) [Example 20, 4-[2,5-Dioxo-4-hydroxymethyl-4-phenylimidazolidin-1-yl]-2-trifluoromethylbenzonitrile], in assay [2] (setting [5]), the “% effect relative to DHT (100%)” value was “§ (0-5%)”.
Turning to `CN1C(=O)N(c2ccc(C#N)c(C(F)(F)F)c2)C(=O)C1(COP(=O)(O)O)c1ccccc1` (stereo not shown) [Example 24, [1-(4-Cyano-3-trifluoromethylphenyl)-2,5-dioxo-3-methyl-4-phenylimidazolidin-4-yl]methyl dihydrogen phosphate], the Emax in assay [2] (setting [5]) lay within 21 to 40%. The EC50 in assay [2] (setting [6]) was 0.01 to 10 nM.
Regarding `CCC(O)C1(c2ccccc2)C(=O)N(c2ccc(C#N)c(C(F)(F)F)c2)C(=O)N1C` (single isomer, unassigned) [Example 2, 4-[2,5-Dioxo-4-(1-hydroxypropyl)-3-methyl-4-phenylimidazolidin-1-yl]-2-trifluoromethylbenzonitrile], the Emax in assay [2] (setting [5]) is 0 to 5%.

For the origin of these results see patent US8383608B2, “Imidazolidine compounds as androgen receptor modulators” (Dart Therapeutics LLC, priority 2008, dated 2013).
